Data taken from article PMC10916402, “Meropenem-ANT3310, a unique β-lactam-β-lactamase inhibitor combination with expanded antibacterial spectrum against Gram-negative pathogens including carbapenem-resistant Acinetobacter baumannii” (Antimicrobial Agents and Chemotherapy, 2024).
Converted amounts (≈) assume the structure as drawn. Where two headings read alike, the source gives them in different places.

Columns and labels:
[1] = test system: A. baumannii clinical isolates; experiment: Broth microdilution MIC, A. baumannii clinical isolates; type: cell-based, Acinetobacter baumannii; conditions: for CLSI % Res / CLSI % Sus: CLSI BP; for CLSI % Res: for MEM-ANT3310 % at ≥16 µg/mL; for CLSI % Sus: for MEM-ANT3310 % inhibited at ≤8 µg/mL; for EUCAST % Res / EUCAST % Sus: EUCAST BP
Outline: (§1)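 Broth microdilution per CLSI and EUCAST in cation-adjusted Mueller Hinton broth, iron-depleted for cefiderocol; ANT3310 panels prepared fresh on test day. Isolates collected 2018–2019, identity confirmed by MALDI-TOF. MIC taken as first well without visible growth, interpreted with 2023 CLSI and EUCAST breakpoints.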

[2] = test system: carbapenem-resistant Acinetobacter baumannii (CRAB) clinical isolates; experiment: Broth microdilution MIC, CRAB isolates; type: cell-based; conditions: for CLSI % Res / CLSI % Sus / EUCAST % Res / EUCAST % Sus: CRAB; for CLSI % Res / CLSI % Sus: CLSI BP; for CLSI % Res: for MEM-ANT3310 % at ≥16 µg/mL; for CLSI % Sus: for MEM-ANT3310 % inhibited at ≤8 µg/mL; for EUCAST % Res / EUCAST % Sus: EUCAST BP; for MIC90: read-out: MIC90
Outline: as §1

[3] = test system: KPC-producing Enterobacterales (KPC-CRE); experiment: organism not typed; type: cell-based
Outline: as §1

[4] = test system: OXA-producing Enterobacterales (OXA-CRE); experiment: organism not typed; type: cell-based
Outline: as §1

[5] = test system: P. aeruginosa clinical isolates; experiment: Broth microdilution MIC, P. aeruginosa clinical isolates; type: cell-based, Pseudomonas aeruginosa; conditions: 502 P. aeruginosa, 2019 global collection
Outline: as §1

[6] = test system: A. baumannii ACC00445 (OXA-23); experiment: MIC against the isolate used in the infection models; type: cell-based; conditions: Acinetobacter baumannii
Method: MICs for all antimicrobial agents were determined at IHMA by broth microdilution in accordance with both CLSI ([17]) and EUCAST ([18]) guidelines. Microtiter panels were prepared by IHMA and stored at −70°C in cation-adjusted Mueller Hinton broth (CAMHB) (Becton Dickinson). Iron-depleted CAMHB was used to test cefiderocol. Panels containing ANT3310 were prepared fresh on the day of testing. […] MIC values corresponded to the first well with no visible growth. Quality control testing was performed on each day of testing with E. coli ATCC 25922, P. aeruginosa ATCC 27853, K. pneumoniae ATCC 700603 and BAA 1705, and A. baumannii NCTC 13304. MICs were interpreted using 2023 CLSI ([17]) and EUCAST ([18]) BPs.

[7] = test system: A. baumannii ACC00445 (OXA-23); experiment: Murine thigh infection model; type: in vivo, neutropenic male CD-1 mice; conditions: 9-h model, MEM 300 mg/kg IV every 2 h alone
[8] = test system: A. baumannii ACC00445 (OXA-23); experiment: Murine lung infection model; type: in vivo, neutropenic male CD-1 mice; conditions: 14-h model, MEM IV 30 mg/kg
[9] = set-up: method as in PMID 14517194, PMID 20851549; conditions: 2 g MEM q8h as a 3-h IV infusion; cited from earlier work
[10] = set-up: method as in PMID 32297801; conditions: 2 g MEM q8h as a 3-h IV infusion, MEM-vaborbactam clinical trials; cited from earlier work
[11] = 2018 Global collection, All A. baumannii, N 500
[12] = 2019 Global collection, All A. baumannii, N 405
[13] = 2018 Global collection, CRAB (MEM MICs >4 µg/mL), N 363
[14] = 2019 Global collection, CRAB (MEM MICs >4 µg/mL), N 340
[15] = 180 KPC-producing Enterobacterales, EUCAST BP
[16] = 252 OXA-producing Enterobacterales, EUCAST BP

Compound: C[C@@H](O)[C@H]1C(=O)N2C(C(=O)O)=C(S[C@@H]3CN[C@H](C(=O)N(C)C)C3)[C@H](C)[C@H]12 [MEM, meropenem]
- % of isolates resistant to MEM (CLSI, MIC ≥8 µg/mL) ([1]; 905 A. baumannii isolates, overall): 78%
- MIC50 [1, 11]: >32 µg/mL
- MIC90 [1, 11]: >32 µg/mL
- Number of isolates inhibited at MIC of 0.25 µg/mL [1, 11]: 52
- Number of isolates inhibited at MIC of 0.5 µg/mL [1, 11]: 42
- Number of isolates inhibited at MIC of 1 µg/mL [1, 11]: 21
- Number of isolates inhibited at MIC of 2 µg/mL [1, 11]: 9
- Number of isolates inhibited at MIC of 4 µg/mL [1, 11]: 6
- Number of isolates inhibited at MIC of 8 µg/mL [1, 11]: 5
- Number of isolates inhibited at MIC of 16 µg/mL [1, 11]: 16
- Number of isolates inhibited at MIC of 32 µg/mL [1, 11]: 64
- Number of isolates inhibited at MIC of >32 µg/mL [1, 11]: 278
- Number of isolates inhibited at MIC of ≤0.125 µg/mL [1, 11]: 7
- CLSI % Res [1, 11]: 72.6%
- CLSI % Sus [1, 11]: 26.2%
- EUCAST % Res [1, 11]: 71.6%
- EUCAST % Sus [1, 11]: 26.2%
- MIC50 [1, 12]: >32 µg/mL
- Number of isolates inhibited at MIC of 0.25 µg/mL [1, 12]: 31
- Number of isolates inhibited at MIC of 0.5 µg/mL [1, 12]: 18
- Number of isolates inhibited at MIC of 1 µg/mL [1, 12]: 1
- Number of isolates inhibited at MIC of 2 µg/mL [1, 12]: 5
- Number of isolates inhibited at MIC of 4 µg/mL [1, 12]: 3
- Number of isolates inhibited at MIC of 8 µg/mL [1, 12]: 9
- Number of isolates inhibited at MIC of 16 µg/mL [1, 12]: 12
- Number of isolates inhibited at MIC of 32 µg/mL [1, 12]: 66
- Number of isolates inhibited at MIC of >32 µg/mL [1, 12]: 253
- Number of isolates inhibited at MIC of ≤0.125 µg/mL [1, 12]: 7
- CLSI % Res [1, 12]: 83.9%
- CLSI % Sus [1, 12]: 15.3%
- EUCAST % Res [1, 12]: 81.7%
- EUCAST % Sus [1, 12]: 15.3%
- MEM-resistance rate ([1]; A. baumannii isolates from Asia/Pacific): 74%
- MEM-resistance rate ([1]; A. baumannii isolates from Middle East): 91%
- MEM-resistance rate ([1]; A. baumannii isolates from North America): 40%
- MIC90 ([1]; Acinetobacter baumannii, 2018 Global collection, All A. baumannii, N 500, read-out: MIC90): > 32 µg/mL
- MIC90 ([1]; Acinetobacter baumannii, 2019 Global collection, All A. baumannii, N 405, read-out: MIC90): > 32 µg/mL
- MIC90 ([1]; Acinetobacter baumannii, A. baumannii, one or both of the 2018/2019 collections, read-out: MIC90): ≥ 32 µg/mL
- MIC50 ([1]; Acinetobacter baumannii, combined A. baumannii 2018–2019 collection (n = 905), ANT3310 at 8 µg/mL, read-out: MIC50): > 32 µg/mL
- MIC90 ([1]; Acinetobacter baumannii, combined A. baumannii 2018–2019 collection (n = 905), ANT3310 at 8 µg/mL, read-out: MIC90): > 32 µg/mL
- MIC50 [2, 13]: >32 µg/mL
- Number of isolates inhibited at MIC of 8 µg/mL [2, 13]: 5
- Number of isolates inhibited at MIC of 16 µg/mL [2, 13]: 16
- Number of isolates inhibited at MIC of 32 µg/mL [2, 13]: 64
- Number of isolates inhibited at MIC of >32 µg/mL [2, 13]: 278
- CLSI % Res ([2]; 2018 Global collection, N 363): 100%
- CLSI % Sus ([2]; 2018 Global collection, N 363): 0%
- EUCAST % Res ([2]; 2018 Global collection, N 363): 98.6%
- EUCAST % Sus ([2]; 2018 Global collection, N 363): 0%
- MIC50 [2, 14]: >32 µg/mL
- Number of isolates inhibited at MIC of 8 µg/mL [2, 14]: 9
- Number of isolates inhibited at MIC of 16 µg/mL [2, 14]: 12
- Number of isolates inhibited at MIC of 32 µg/mL [2, 14]: 66
- Number of isolates inhibited at MIC of >32 µg/mL [2, 14]: 253
- CLSI % Res ([2]; 2019 Global collection, N 340): 100%
- CLSI % Sus ([2]; 2019 Global collection, N 340): 0%
- EUCAST % Res ([2]; 2019 Global collection, N 340): 97.3%
- EUCAST % Sus ([2]; 2019 Global collection, N 340): 0%
- MIC90 ([2]; Acinetobacter baumannii, 2018 Global collection, CRAB (MEM MICs >4 µg/mL), N 363): > 32 µg/mL
- MIC90 ([2]; Acinetobacter baumannii, 2019 Global collection, CRAB (MEM MICs >4 µg/mL), N 340): > 32 µg/mL
- MIC50 ([2]; Acinetobacter baumannii, CRAB isolates 2018–2019 (n = 703), ANT3310 at 8 µg/mL, read-out: MIC50): > 32 µg/mL
- MIC90 ([2]; Acinetobacter baumannii, CRAB isolates 2018–2019 (n = 703), ANT3310 at 8 µg/mL): > 32 µg/mL
- MIC50 [3]: > 32 µg/mL
- MIC90 [3]: > 32 µg/mL
- MIC90 ([3]; 180 KPC-producing Enterobacterales, 2018 global collection): >32 µg/mL
- CLSI % Res ([3]; 180 KPC-producing Enterobacterales, CLSI BP, for MEM-ANT3310 % at ≥16 µg/mL): 98.9%
- CLSI % Sus ([3]; 180 KPC-producing Enterobacterales, CLSI BP, for MEM-ANT3310 % inhibited at ≤8 µg/mL): 0%
- EUCAST % Res [3, 15]: 88.3%
- EUCAST % Sus [3, 15]: 1.1%
- MIC50 [4]: 16 µg/mL (≈ 41.7 µM)
- MIC90 [4]: > 32 µg/mL
- MIC90 ([4]; 252 OXA-producing Enterobacterales, 2018 global collection): >32 µg/mL
- CLSI % Res ([4]; 252 OXA-producing Enterobacterales, CLSI BP, for MEM-ANT3310 % at ≥16 µg/mL): 89.7%
- CLSI % Sus ([4]; 252 OXA-producing Enterobacterales, CLSI BP, for MEM-ANT3310 % inhibited at ≤8 µg/mL): 0%
- EUCAST % Res [4, 16]: 74.6%
- EUCAST % Sus [4, 16]: 10.5%
- Number of isolates inhibited at MIC of 0.25 µg/mL [5]: 97
- Number of isolates inhibited at MIC of 0.5 µg/mL [5]: 109
- Number of isolates inhibited at MIC of 1 µg/mL [5]: 87
- Number of isolates inhibited at MIC of 2 µg/mL [5]: 27
- Number of isolates inhibited at MIC of 4 µg/mL [5]: 25
- Number of isolates inhibited at MIC of 8 µg/mL [5]: 27
- Number of isolates inhibited at MIC of 16 µg/mL [5]: 15
- Number of isolates inhibited at MIC of 32 µg/mL [5]: 9
- Number of isolates inhibited at MIC of >32 µg/mL [5]: 26
- Number of isolates inhibited at MIC of ≤0.125 µg/mL [5]: 80
- MIC50 ([5]; Pseudomonas aeruginosa, read-out: MIC50): 0.5 µg/mL (≈ 1.3 µM)
- MIC90 ([5]; Pseudomonas aeruginosa, read-out: MIC90): 8 µg/mL (≈ 20.9 µM)
- MIC [6]: 64 µg/mL (≈ 167 µM)
- bacterial counts compared to the vehicle-treated group [7]: No reductions in bacterial counts
- efficacy of MEM alone [8]: No efficacy
- probability of target attainment for MEM MICs ≤8 µg/mL [9]: > 90%
- safety and tolerability [10]: generally safe and well tolerated
